Assay results as given in ChEMBL document CHEMBL1201862, “PubChem BioAssay data set” (2004).
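Assay format: 96-well plates, 48-hour exposure. Here, GI50 denotes the concentration required for 50% inhibition of growth.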 Calls of active or inactive are those of the source. Rule as the data show it: active = GI50 up to about 1.1 µM and inactive = higher. Where a SMILES comes first, the peptide text is derived from it. [ ]: non-standard residue; d: D form. The star is where a group is joined. ξ: configuration not given here. NMeF = CN[CH](Cc1ccccc1)C(=O)O; ξNMe2Val = CC(C)C(C(=O)*)N(C)C; NMeV = CN[CH](C(=O)O)C(C)C; OtBu = CC(C)(C)O*

Assays:
Assay in all cases: growth of human tumour cells (NCI), 48 h
[1] = system: CCRF-CEM
[2] = system: RPMI-8226
[3] = system: ACHN
[4] = system: NCI-H226
[5] = system: A549
[6] = system: SK-OV-3
[7] = system: EKVX
[8] = system: IGROV-1
[9] = system: HOP-62
[10] = system: NCI-H460
[11] = system: HCC 2998
[12] = system: RXF 393
[13] = system: SF-539
[14] = system: SW-620
[15] = system: COLO 205
[16] = system: SN12C

Measured: GI50

N#[N+]c1ccccc1Sc1ccc(Cl)cc1
inactive: [1] 89.9 µM | [2] 52.4 µM | [3] > 100 µM | [4] 76.9 µM | [5] > 100 µM | [6] > 100 µM | [7] > 100 µM | [8] 82.8 µM | [9] 40.4 µM | [10] > 100 µM | [11] > 100 µM | [12] 32.2 µM | [13] > 100 µM | [14] > 100 µM

NC(=O)N/N=C(\CC1OC(=O)c2ccccc21)c1ccc([N+](=O)[O-])cc1 (configuration not stated)
inactive: [1] 31.3 µM | [2] 31.3 µM | [15] 46.8 µM | [16] 31 µM | [3] 62.1 µM | [5] 38.7 µM | [7] 33.8 µM | [8] 23.7 µM | [9] 22.7 µM | [10] 39.9 µM | [11] 18 µM | [12] 14.9 µM | [13] 21.5 µM | [14] 35.7 µM

C/C(=C1/CCC/C(=C(/C)c2ccccc2)C1=O)c1ccccc1
inactive: [1] 22.2 µM | [2] 23.9 µM | [15] 65.6 µM | [16] 50.7 µM | [3] 38.6 µM | [4] 17.4 µM | [5] 31.8 µM | [6] > 100 µM | [7] 45.8 µM | [8] 79.4 µM | [10] 27.2 µM | [11] 46.3 µM | [12] 17.6 µM | [13] 62.4 µM | [14] 80 µM

CNC(=O)NCCN1N=C(C)/C(=C\c2ccccc2)CC1=O
inactive: [1] > 100 µM | [2] > 100 µM | [16] > 100 µM | [3] > 100 µM | [4] > 100 µM | [5] > 100 µM | [6] > 100 µM | [8] > 100 µM | [9] > 100 µM | [10] > 100 µM | [11] > 100 µM | [12] > 100 µM | [13] > 100 µM | [14] > 100 µM

COc1cc2cnc3c4ccccc4ccc3c2cc1OC
inactive: [1] > 100 µM | [2] > 100 µM | [15] > 100 µM | [16] > 100 µM | [3] > 100 µM | [5] > 100 µM | [6] > 100 µM | [7] 6.73 µM | [8] > 100 µM | [9] > 100 µM | [10] > 100 µM | [11] > 100 µM | [14] > 100 µM

CC(C)N1CCC2(CC1)NNc1ncccc1-n1cccc12
inactive: [1] > 100 µM | [2] > 100 µM | [15] > 100 µM | [16] > 100 µM | [3] > 100 µM | [4] > 100 µM | [5] > 100 µM | [7] > 100 µM | [9] > 100 µM | [10] > 100 µM | [11] > 100 µM | [13] > 100 µM | [14] > 100 µM

CN(C)/C=N\c1ccn(CCO)c(=O)n1
inactive: [1] > 100 µM | [15] > 100 µM | [16] > 100 µM | [3] > 100 µM | [4] > 100 µM | [5] > 100 µM | [6] > 100 µM | [7] > 100 µM | [8] > 100 µM | [9] > 100 µM | [10] > 100 µM | [11] > 100 µM | [12] > 100 µM | [13] > 100 µM | [14] > 100 µM

COC(=O)C1Cc2c(n(Cc3ccccc3)c3ccccc23)C(CCC(=O)O)N1C(C)C (configuration not stated)
inactive: [1] > 100 µM | [15] > 100 µM | [16] > 100 µM | [3] > 100 µM | [4] > 100 µM | [5] > 100 µM | [6] > 100 µM | [7] > 100 µM | [8] > 100 µM | [10] > 100 µM | [11] > 100 µM | [13] > 100 µM | [14] > 100 µM

Cc1ccccc1-c1cc(=O)c2cc(C)c(C)c(C(=O)O)c2o1
inactive: [1] > 100 µM | [2] > 100 µM | [15] > 100 µM | [16] > 100 µM | [3] > 100 µM | [4] > 100 µM | [5] > 100 µM | [6] > 100 µM | [7] > 100 µM | [8] > 100 µM | [9] > 100 µM | [10] > 100 µM | [11] > 100 µM | [13] > 100 µM | [14] > 100 µM

O=C(Nc1c(O)[nH]c(=S)[nH]c1=O)c1ccc2ccccc2n1
inactive: [1] > 100 µM | [2] > 100 µM | [15] > 100 µM | [16] > 100 µM | [3] > 100 µM | [4] > 100 µM | [5] > 100 µM | [6] > 100 µM | [8] > 100 µM | [9] > 100 µM | [10] > 100 µM | [13] > 100 µM | [14] > 100 µM

COc1ccc(/C=C/C(=O)C(C)C)cc1
inactive: [1] 35.9 µM | [15] 40 µM | [16] 54.3 µM | [3] 50.9 µM | [5] 69.2 µM | [6] 31 µM | [7] 45.3 µM | [8] > 100 µM | [9] 43.8 µM | [10] 26.8 µM | [11] > 100 µM | [13] 46.2 µM | [14] 33 µM

NCCCSCC(=O)O
inactive: [2] > 100 µM | [15] > 100 µM | [16] > 100 µM | [3] > 100 µM | [4] > 100 µM | [5] > 100 µM | [6] > 100 µM | [7] > 100 µM | [8] > 100 µM | [11] > 100 µM | [12] > 100 µM | [13] > 100 µM | [14] > 100 µM

O=c1cc(-c2ccccc2)oc2cc(OCCCCCCCCCCOc3ccc4c(=O)cc(-c5ccccc5)oc4c3)ccc12
inactive: [1] > 100 µM | [2] > 100 µM | [15] > 100 µM | [16] 42.5 µM | [3] > 100 µM | [5] > 100 µM | [6] > 100 µM | [7] > 100 µM | [8] > 100 µM | [9] > 100 µM | [11] > 100 µM | [13] > 100 µM | [14] > 100 µM

CC(C)C(C(=O)N(C)C(Cc1ccccc1)C(=O)N(C)C(C(=O)N(C)C(C(=O)N1CCCC1C(=O)OC(C)(C)C)C(C)C)C(C)C)N(C)C (configuration not stated) (ξNMe2Val-[NMeF][NMeV][NMeV]P-OtBu; configuration not given here)
inactive: [1] 31.6 µM | [2] 36.8 µM | [15] 35.2 µM | [16] 50.1 µM | [3] 65 µM | [4] > 100 µM | [5] 71.1 µM | [7] 64 µM | [8] 90.6 µM | [9] 64.4 µM | [10] 43.2 µM | [11] 22.8 µM | [13] 26.1 µM | [14] 43 µM
